The subject of experiment [1] is stable HCV 1a RLuc replicon cells (genotype 1a H77 replicon). Briefly: HCV genotype 1a RLuc replicon reporter assay. The note with it: Hepatitis C virus; stable genotype 1a H77 RLuc replicon cells, 72 hours. It is filed as cell-based.
For experiment [2], the system named is Y93H in genotype 1a NS5A replicon. Briefly: Resistance mutant replicon assay, genotype 1a NS5A Y93H. The class given is cell-based, HCV. The following applies: Hepatitis C virus, read-out: 1a Y93H (nM). A digest of the protocol:
(§1)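 Mutations introduced by site-directed mutagenesis into 1a or 1b Pi-RLuc replicons (3a Y93H in 1b Con1 chimera carrying 3a S52 NS5A), RNA transiently transfected into Huh-7-derived cured-51 cells. 3-fold compound dilutions; Renilla luciferase read after 72 h; EC50 by non-linear regression.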

In experiment [3] the test system is Q30E in genotype 1a NS5A replicon. Briefly: Resistance mutant replicon assay, genotype 1a NS5A Q30E. The class given is cell-based, HCV. The following applies: Hepatitis C virus, read-out: 1a Q30E (nM). An outline of the steps: as §1
Experiment [4] has as its system NS5A chimeric genotype 1b Con1 replicon with genotype 3a S52 strain NS5A gene. Nature of the experiment: HCV genotype 3a NS5A chimeric replicon assay. The class given is cell-based. The following applies: Hepatitis C virus, 72 h, read-out: 3a (nM). A digest of the protocol: (§2)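 Stable 1b Con1 RLuc replicon cells, or Huh-Lunet cells transiently transfected with chimeric replicons (Con1 backbone carrying 3a S52 or 4a ED43 NS5A; JFH-1 backbone carrying 2b MD2b-1 NS5A, M31), treated with 3-fold dilutions for 72 h. Renilla luciferase read after lysis; EC50 by non-linear regression.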

Experiment [5] deals with NS5A chimeric genotype 2a JFH-1 replicon with genotype 2b MD2b-1 strain NS5A gene (M31). Nature of the experiment: HCV genotype 2b NS5A chimeric replicon assay, transient (t). It is filed as cell-based. The following applies: Hepatitis C virus, 72 h, read-out: 2b (t) (nM). An outline of the steps:
as §2

In experiment [6] the test system is NS5A chimeric genotype 2a JFH-1 replicon with genotype 2a J6 strain NS5A gene (M31). Nature of the experiment: HCV genotype 2a J6 NS5A chimeric replicon assay, transient (t). It is filed as cell-based. The following applies: Hepatitis C virus, 72 h, read-out: 2a J6 (t) (nM).
For experiment [7], the system named is NS5A chimeric genotype 1b Con1 replicon with genotype 4a ED43 strain NS5A gene. Briefly: HCV genotype 4a NS5A chimeric replicon assay. It is filed as cell-based. The note with it: Hepatitis C virus, 72 h, read-out: 4a (s) (nM).
The test system of experiment [8] is stable HCV 2a JFH-1 Rluc replicon cells (L31 present in NS5A). Nature of the experiment: HCV genotype 2a JFH-1 RLuc replicon reporter assay. The class given is cell-based. The following applies: Hepatitis C virus, 72 h, read-out: 2a JFH (nM).

Molecules are shown by their SMILES.

With `COC(=O)N[C@H](C(=O)N1[C@@H](C)CC[C@H]1c1ncc(-c2ccc3c(c2)COc2cc4c(ccc5nc([C@@H]6CC[C@H](C)N6C(=O)[C@@H](NC(=O)OC)C6CC(C)O[C@H](C)C6)[nH]c54)cc2-3)[nH]1)C(C)C` (stereo in doubt) [Example AQ, Methyl {(2S)-1-[(2S,5S)-2-(5-{2-[(2S,5S)-1-{(2S)-2-[(2R,6R)-2,6-dimethyltetrahydro-2H-pyran-4-yl]-2-[(methoxycarbonyl)amino]acetyl}-5-methylpyrrolidin-2-yl]-1,11-dihydroisochromeno[4′,3′:6,7]naphtho[1,2-d]imidazol-9-yl}-1H-imidazol-2-yl)-5-methylpyrrolidin-1-yl]-3-methyl-1-oxobutan-2-yl}carbamate], the EC50 in experiment [1] was found to be 0.019 nM; in experiment [2], 0.206 nM; in experiment [3] it was 0.074 nM; in experiment [4], 0.017 nM; in experiment [5], 0.016 nM; in experiment [6] it was 0.011 nM. Besides, the EC50 in experiment [7] stood at 0.012 nM; in experiment [8] it was 0.016 nM.

`CC[C@H]1CC[C@@H](c2nc3ccc4cc5c(cc4c3[nH]2)OCc2cc(-c3cnc([C@@H]4CC[C@H](C)N4C(=O)[C@@H](NC(=O)OC)C(C)C)[nH]3)ccc2-5)N1C(=O)[C@@H](NC(=O)OC)C1CCOCC1` [Comp 3, reference compound]: the EC50 in experiment [1] worked out at 0.021 nM; in experiment [2], 2.54 nM; in experiment [3], 0.526 nM; in experiment [4] it was 0.065 nM; in experiment [6], 0.061 nM; in experiment [7] it was 0.014 nM. Also, in experiment [8], the EC50 worked out at 0.019 nM.

Regarding `CC[C@H](C)[C@H](NC(=O)OC)C(=O)N1[C@@H](C)CC[C@H]1c1ncc(-c2ccc3c(c2)COc2cc4c(ccc5nc([C@@H]6CC[C@H](C)N6C(=O)[C@@H](NC(=O)OC)C6CCOCC6)[nH]c54)cc2-3)[nH]1` [Comp 4, reference compound], the EC50 was found to be 0.023 nM in experiment [1]; 0.978 nM in experiment [2]; 0.432 nM in experiment [3]; 0.043 nM in experiment [4]; 0.026 nM in experiment [6]; 0.021 nM in experiment [7]. Moreover, the EC50 in experiment [8] stood at 0.018 nM.

Consider `CC[C@H](C)[C@H](NC(=O)OC)C(=O)N1[C@@H](C)CC[C@H]1c1ncc(-c2ccc3c(c2)COc2cc4c(ccc5nc([C@@H]6CC[C@H](C)N6C(=O)[C@@H](NC(=O)OC)C6C[C@@H](C)O[C@H](C)C6)[nH]c54)cc2-3)[nH]1` (stereo partly drawn) [Example AA, Methyl {(2S,3S)-1-[(2S,5S)-2-(5-{2-[(2S,5S)-1-{(2S)-2-[(2R,6R)-2,6-dimethyltetrahydro-2H-pyran-4-yl]-2-[(methoxycarbonyl)amino]acetyl}-5-methylpyrrolidin-2-yl]-1,11-dihydroisochromeno[4′,3′:6,7]naphtho[1,2-d]imidazol-9-yl}-1H-imidazol-2-yl)-5-methylpyrrolidin-1-yl]-3-methyl-1-oxopentan-2-yl}carbamate], for which the EC50 is 0.016 nM in experiment [1]; 0.322 nM in experiment [2]; 0.145 nM in experiment [3]; 0.014 nM in experiment [4]; 0.014 nM in experiment [5]; 0.006 nM in experiment [6]. Also, the EC50 in experiment [7] came to 0.008 nM; in experiment [8], 0.011 nM.

Regarding `COC(=O)N[C@H](C(=O)N1[C@@H](C)CC[C@H]1c1ncc(-c2ccc3c(c2)COc2cc4c(ccc5nc([C@@H]6CC[C@H](C)N6C(=O)[C@@H](NC(=O)OC)[C@H]6C[C@@H](C)O[C@@H](C)C6)[nH]c54)cc2-3)[nH]1)C(C)C` [Example AM, Methyl {(2S)-1-[(2S,5S)-2-(5-{2-[(2S,5S)-1-{(2S)-2-[(2R,6S)-2,6-dimethyltetrahydro-2H-pyran-4-yl]-2-[(methoxycarbonyl)amino]acetyl}-5-methylpyrrolidin-2-yl]-1,11-dihydroisochromeno[4′,3′:6,7]naphtho[1,2-d]imidazol-9-yl}-1H-imidazol-2-yl)-5-methylpyrrolidin-1-yl]-3-methyl-1-oxobutan-2-yl}carbamate], the EC50 in experiment [1] is 0.009 nM; in experiment [3], 1.21 nM; in experiment [4], 0.011 nM; in experiment [5] it was 0.008 nM; in experiment [6], 0.008 nM; in experiment [7], 0.01 nM. In experiment [8], the EC50 amounted to 0.005 nM.

Regarding `COC(=O)N[C@H](C(=O)N1[C@@H](C)CC[C@H]1c1nc2ccc3cc4c(cc3c2[nH]1)OCc1cc(-c2cnc([C@@H]3CC[C@H](C)N3C(=O)[C@@H](NC(=O)OC)[C@H]3C[C@@H](C)O[C@@H](C)C3)[nH]2)ccc1-4)C(C)C` [Example AO, Methyl {(2S)-1-[(2S,5S)-2-(9-{2-[(2S,5S)-1-{(2S)-2-[(2R,6S)-2,6-dimethyltetrahydro-2H-pyran-4-yl]-2-[(methoxycarbonyl)amino]acetyl}-5-methylpyrrolidin-2-yl]-1H-imidazol-5-yl}-1,11-dihydroisochromeno[4′,3′:6,7]naphtho[1,2-d]imidazol-2-yl)-5-methylpyrrolidin-1-yl]-3-methyl-1-oxobutan-2-yl}carbamate], the EC50 in experiment [1] is 0.012 nM; in experiment [3] it was 1.78 nM; in experiment [4], 0.021 nM; in experiment [5], 0.015 nM; in experiment [6] it was 0.017 nM; in experiment [7], 0.018 nM. In experiment [8], the EC50 was 0.008 nM.

On to `COC(=O)N[C@H](C(=O)N1[C@@H](C)CC[C@H]1c1nc2ccc3cc4c(cc3c2[nH]1)OCc1cc(-c2cnc([C@@H]3CC[C@H](C)N3C(=O)[C@@H](NC(=O)OC)C3C[C@@H](C)O[C@H](C)C3)[nH]2)ccc1-4)C(C)C` (stereo partly drawn) [Example AS], for which the EC50 in experiment [1] was found to be 0.026 nM; in experiment [2], 0.148 nM; in experiment [3], 0.115 nM; in experiment [4], 0.051 nM; in experiment [5], 0.026 nM; in experiment [6] it was 0.015 nM. Also, the results for the EC50 in experiment [7] and in experiment [8] were 0.024 nM and 0.028 nM, respectively.

`COC(=O)N[C@H](C(=O)N1[C@@H](C)CC[C@H]1c1ncc(-c2ccc3c(c2)COc2cc4c(ccc5nc([C@@H]6CC[C@H](C)N6C(=O)[C@@H](NC(=O)OC)C6C[C@@H](C)O[C@H](C)C6)[nH]c54)cc2-3)[nH]1)C1C[C@@H](C)O[C@H](C)C1` (stereo partly drawn) [Example AU, Methyl {(1S)-1-[(2R,6R)-2,6-dimethyltetrahydro-2H-pyran-4-yl]-2-[(2S,5S)-2-(5-{2-[(2S,5S)-1-{(2S)-2-[(2R,6R)-2,6-dimethyltetrahydro-2H-pyran-4-yl]-2-[(methoxycarbonyl)amino]acetyl}-5-methylpyrrolidin-2-yl]-1,11-dihydroisochromeno[4′,3′:6,7]naphtho[1,2-d]imidazol-9-yl}-1H-imidazol-2-yl)-5-methylpyrrolidin-1-yl]-2-oxoethyl}carbamate]: the EC50 is 0.029 nM in experiment [1]; 0.026 nM in experiment [2]; 0.042 nM in experiment [3]; 0.029 nM in experiment [4]; 0.017 nM in experiment [5]; 0.008 nM in experiment [6]. Besides, the figures for the EC50 in experiment [7] and in experiment [8] were 0.017 nM and 0.013 nM, respectively.

`COC[C@H]1C[C@@H](c2ncc(-c3ccc4c(c3)COc3cc5c(ccc6nc([C@@H]7CC[C@H](C)N7C(=O)[C@@H](NC(=O)OC)C7C[C@@H](C)O[C@H](C)C7)[nH]c65)cc3-4)[nH]2)N(C(=O)[C@@H](NC(=O)OC)C2C[C@@H](C)O[C@H](C)C2)C1` (stereo partly drawn) [Example BH, Methyl {(1S)-1-[(2R,6R)-2,6-dimethyltetrahydro-2H-pyran-4-yl]-2-[(2S,5S)-2-(9-{2-[(2S,4S)-1-{(2S)-2-[(2R,6R)-2,6-dimethyltetrahydro-2H-pyran-4-yl]-2-[(methoxycarbonyl)amino]acetyl}-4-(methoxymethyl)pyrrolidin-2-yl]-1H-imidazol-5-yl}-1,11-dihydroisochromeno[4′,3′:6,7]naphtho[1,2-d]imidazol-2-yl)-5-methylpyrrolidin-1-yl]-2-oxoethyl}carbamate]: the EC50 stood at 0.053 nM in experiment [1]; 0.04 nM in experiment [2]; 0.056 nM in experiment [4]; 0.055 nM in experiment [6]; 0.024 nM in experiment [7]; 0.013 nM in experiment [8].

(Values after patent US20160362416A1, “ANTIVIRAL COMPOUNDS” (Gilead Sciences, Inc., priority 2012, published 2016).)
